From a melting point compilation (Tetko et al.) come the findings set out here.

As a reminder, the melting point is the temperature of the solid-liquid transition.

Compound `C#Cc1ccc(C)cc1` gave a melting point of 21 °C. The same measure for `CC(CCC(=O)O)C1CCC2C3CCC4C(Br)C(=O)CCC4(C)C3CCC12C` (configuration not stated): 190 °C. The same measure for `CCOC(=O)C(C)O` (configuration not stated): -26 °C; for `CC12CCC(O)CC1CCC1C2CCC2(C)C(OC(=O)c3ccccc3)CCC12` (configuration not stated): 194 °C; for `CC1OC(C)OC(C)OC(C)O1` (configuration not stated): 246 °C. The same measure for `CSC(=Nc1nnc(-c2ccccc2)s1)SC`: 111 to 113 °C. `CC(C)(C)P(C(C)(C)C)C(C)(C)C` returned a melting point of 30 °C. The same measure for `CC1=CC(=O)OC2(C1)CC1CCC2CN1C` (configuration not stated): 54.5 °C.

Take `CCC(C)C1(CC)C(=O)NC(=O)NC1=O` (configuration not stated): the melting point worked out at 167 °C. `N#Cc1cccc(-n2cccc2C=O)c1` yielded a melting point of 139 to 141 °C. As for `COC(=O)Cc1ccc(O)cc1`, the melting point came to 57 °C. For `N#Cc1ccc(F)cc1Br` the value was 76 °C; for `CC1=NN(c2ccccc2)C(=O)/C1=N\Nc1ccc(C(=O)O)cc1`, 313 °C.

On to `CCOc1cc2c(cc1OCC)C(C)=NCC2`, for which the melting point lay within 68 to 71 °C.

The compound `O=Cc1cn2ccsc2n1` displayed a melting point of 71 °C. In turn, `Cc1ccc(C2C(C#N)=C(N)Oc3c2c(C(F)(F)F)nn3-c2ccccc2)cc1` (configuration not stated) showed a melting point of 205 °C. `Fc1nc(F)c(Cl)c(F)c1Cl`: the melting point was determined as 25 °C. For `CC(Cc1cc(=O)c2c3c(c4ccccc4c2o1)OC1CC(=O)OC31)O[Si](C)(C)C(C)(C)C` (configuration not stated) the value was 188 °C; for `COc1ccc(C(=O)CC#N)cc1`, 129 to 132 °C; for `CN(C)c1ccc(CNC(=O)c2cc([N+](=O)[O-])cc([N+](=O)[O-])c2)cc1`, 145 °C.

Consider `NC(=O)c1sccc1Br`, for which the melting point was 78 °C.

As to `FC(F)(Br)CBr`, the melting point was -61 °C.

For `CC(=O)N(c1ccccc1)c1ccccc1`, the melting point is 103 °C. `C=CCCCCCCCCCCCCCCCCCCCC` yielded a melting point of 38 °C.

On to `O=C1OC(c2ccccc2)(c2ccccc2)c2ccccc21`, for which the melting point turned out to be 120 °C.

`COc1ccc2c(c1OC)C(=O)OC2C1c2c(cc3c(c2OC)OCO3)CCN1C` (configuration not stated) yielded a melting point of 176 °C. `CC(=O)c1ccccc1[N+](=O)[O-]` came in with a melting point of 28.5 °C. The same measure for `CC(=O)Nc1ccccc1C(F)(F)F`: 96 °C; for `O=C(O)[C@H](O)c1ccccc1Cl`: 118 to 121 °C. For `COC(=O)c1cc2ccccc2n1C(=O)OC(C)(C)C` the value was 66 to 67 °C. For `CCOc1ccc(N=C=S)cc1` the value was 60 to 61 °C; for `CC(C)(C)C(=O)Cl`, -56 °C; for `CC(C)C1OC(=O)C2CCC1(C)OC2(C)C` (configuration not stated), 120 °C. Regarding `OCCc1ccccc1C(F)(F)F`, the melting point lay within 2 to 3 °C. `Cc1cc(C(N)=O)no1` returned a melting point of 171 to 173 °C. In the case of `CC(C)=CCC1C(=O)N(c2ccccc2)N(c2ccccc2)C1=O`, the melting point came out at 156 °C. For `O=C(O)c1cc(O)c(Br)c(O)c1` the value was 270 °C; for `Brc1ccc(I)cn1`, 124 °C; for `CC(C)(C)OC(=O)N1CCN(c2ccccc2C(=O)O)CC1`, 165 to 166 °C. The same measure for `O=C1NC(=S)NC(=O)C1=NNc1cccc([N+](=O)[O-])c1`: 330 °C.

`OC(c1ccc(F)cc1)c1ccc(F)cc1`: the melting point was 47 °C.

As to `O=C(O)Cc1noc2ccccc12`, the melting point fell in the range of 123 to 125 °C. With `O=C1c2ccc(O)cc2C(=O)c2ccc(O)cc21`, the melting point is 300 °C. For `COc1nc(C)nc(N)n1` the value was 260 °C; for `CCCCCCCCCCNCCCCCCCCCC`, 40 °C.

`Cc1c(C)c2c(c3c1CC3)CC2` came in with a melting point of 105 to 116 °C. In turn, `COC(=O)CC#N` displayed a melting point of -13 °C. For `CCS(N)(=O)=O` the value was 60 °C. For `O=Cc1ccc(O)c(OC(F)(F)F)c1` the value was 78 °C.

With `NS(=O)(=O)c1cc(F)ccc1F`, the melting point was found to be 141 °C. In the case of `CC(=O)Nc1ccc(/C(=C\c2ccccc2NC(C)=O)C(=O)O)cc1`, the melting point was found to be 240 °C. Regarding `O=C(NCN1CCOCC1)c1cnccn1`, the melting point came to 118 °C. The same measure for `Cc1cc(C)n(CN(Cn2nc(C)cc2C)c2ccc(N(Cn3nc(C)cc3C)Cn3nc(C)cc3C)cc2)n1`: 175 °C; for `Cc1c(C)c(C)c(CCl)c(CCl)c1C`: 135 °C; for `N[C@H]1CC[C@H](N)CC1`: 68 to 71 °C. As for `CC1(C)CC(=O)c2cc(-c3ccccc3)n(-c3ccc(Cl)c(Cl)c3)c2C1`, the melting point is 167 to 169 °C. `Cc1onc(-c2ccccc2)c1C(=O)O`: the melting point was in the range of 192 to 193 °C. For `CCC(CCC(C)C1CCC2C3=CC=C4CC(O)CCC4(C)C3CCC21C)C(C)C` (configuration not stated) the value was 144 °C; for `O=C(O)c1cnn(-c2ccc([N+](=O)[O-])cc2)c1C(F)(F)F`, 202 to 204 °C; for `CCCCCCCCC(C)=O`, 14 °C.

On to `COc1cc(CC(=O)O)c([N+](=O)[O-])cc1OC`, for which the melting point is 111 to 112 °C. The same measure for `CC(CCC(=O)O)C1CCC2C3C(=O)CC4CC5(CCC4(C)C3CC(=O)C12C)OCCO5` (configuration not stated): 222 °C. Take `O=C(C(=O)c1ccc(Cl)cc1)c1ccccc1`: the melting point was 67 °C. With `NC(=O)C(CCN1CCCCCC1)(c1ccccc1)c1ccccc1`, the melting point stood at 142 °C. The same measure for `NS(=O)(=O)c1cc(-c2nnn[nH]2)c(NCc2cccs2)cc1Cl`: 220 °C. `FC(F)(F)c1ccc(N2CCNCC2)cc1`: the melting point was 89 to 92 °C. The same measure for `O=C1c2ccccc2C(=O)c2c1cc(O)c(O)c2O`: 313 °C; for `CC1(C)C(C(=O)c2ccccc2)=Nc2ccccc21`: 83 °C. For `CCc1nnc(-c2ccccn2)nc1CC` the value was 70 °C; for `Clc1ccc(C2C3CCc4ccccc4C3=NN2c2ccc(Cl)cc2)cc1` (configuration not stated), 186 to 188 °C; for `CCCCOc1ccc(NC(=O)C(F)(F)C(F)(F)C(F)(F)C(F)(F)C(F)(F)C(F)(F)C(F)(F)C(F)(F)F)cc1`, 136 to 138 °C. The compound `COc1ccc2cc(-c3ccn[nH]3)ccc2c1` displayed a melting point of 201 °C. The same measure for `C=CC(=O)OC1CC2CCC1(C)C2(C)C` (configuration not stated): 97 °C; for `S=C(Oc1ccccn1)Oc1ccccn1`: 96 to 99 °C; for `CC(O)C(c1ccccc1)c1ccccc1` (configuration not stated): 59 to 63 °C. For `NC(=S)c1ccc(F)cc1` the value was 150 °C; for `O=C(N[C@@H](C(=O)O)c1ccccc1)OCC(Cl)(Cl)Cl`, 141 to 142 °C.

In turn, `COc1c(C)c2c(c(O)c1CC=C(C)CCC(=O)OCCN1CCOCC1)C(=O)OC2` returned a melting point of 93.5 °C. For `O=P(N1CC1)(N1CC1)N(N=Cc1ccccc1)c1ccccc1` the value was 114 °C; for `CCCC(=O)C=Cc1ccc(O)c(O)c1`, 132 °C; for `COc1ccc(C=C2SC(=S)N(CNc3ccc([N+](=O)[O-])cc3)C2=O)cc1`, 176 °C. Compound `N#Cc1c(F)cccc1Oc1ccc(F)cc1` gave a melting point of 73 to 74 °C. The same measure for `Cc1nc(-c2ccc(S(=O)(=O)Cl)s2)cs1`: 88 to 90 °C; for `COc1ccccc1N1CCN(CCCNc2cc(=O)n(C)c(=O)n2C)CC1`: 156 °C. `CC12CCC(C(O)=C/C1=N\Nc1ccccc1)C2(C)C` (configuration not stated): the melting point was 188 °C. The same measure for `NC(=S)Nc1ccccn1`: 148 to 150 °C; for `CCOC(=O)c1c(-c2ccc(F)cc2)csc1N`: 92.5 to 95.5 °C.

Consider `Cc1ccc(C(=O)c2ccccc2N)cc1`, for which the melting point was 91 to 94 °C.

Compound `N#CSc1ccc([N+](=O)[O-])c(C(=O)O)c1` had a melting point of 156 to 160 °C.

As for `CCOC(=O)C1=C(C)NC(C)=C(C(=O)OCC)C1c1ccco1`, the melting point is 164 °C.

Compound `O=Cc1ccc([N+](=O)[O-])cc1[N+](=O)[O-]` registered a melting point of 72 °C.

`CCOC(=O)C1=C(C)NC(=O)NC1c1ccccc1C(F)(F)F` (configuration not stated) showed a melting point of 203 °C. For `CNC(C)C(O)c1ccc(O)cc1` (configuration not stated) the value was 153 °C; for `C=Cc1cccc(C(N)=O)c1`, 133 °C; for `O=Cc1cc([N+](=O)[O-])ccc1Sc1ccccn1`, 109 to 110 °C. As for `CCOC(=O)C(=Cc1cc(C=C(C(=O)OCC)C(=O)OCC)cc([N+](=O)[O-])c1)C(=O)OCC`, the melting point was determined as 80 °C. For `CCOc1ccc2c(c1)C(C)=CC(C)(C)N2` the value was below -20 °C; for `O=C(Nc1ccccc1)C1CCCC/C1=C\Cc1ccccc1` (configuration not stated), 99 to 100 °C. The same measure for `O=C(C(=O)c1ccc2ccccc2c1)c1ccccc1`: 87 °C; for `CC=C(C(=CC)c1ccc(O)cc1)c1ccc(O)cc1`: 228 °C. For `CC(=O)OC1C2=C(C(=O)C(O)C3(CC3C)C2=O)C2(C)CCC(C)=C(C)C2C1O` (configuration not stated) the value was 177 to 178 °C; for `Cc1cccc(O[Si]23OCCN(CCO2)CCO3)c1`, 166 °C; for `N#CC12CCN(CC1)CC2`, 133 °C. Compound `OCC(F)(F)C(F)(F)C(F)(F)C(F)(F)C(F)(F)C(F)(F)CO` came in with a melting point of 80 to 83 °C. As to `COC(=O)/C=C(/C(=O)OC)N(Nc1ccccc1N=Nc1ccccc1)c1ccccc1`, the melting point was 153 to 154 °C.

For `Cc1ccc(Cl)c(N)c1Cl`, the melting point lay in the range of 37 to 40 °C. The same measure for `CN(C)c1ccc(/C=C(\C#N)c2nc(-c3cccc4ccccc34)cs2)cc1`: 128 °C.
